Measured values as given in the supplement of paper PMC10307832.

What was measured:
Test in all cases: relative viability (nuclei count vs DMSO), 5 days (fraction); higher = more cells survive
[1] = compound: COc1cc(Nc2ncc(F)c(Nc3ccc4c(n3)NC(=O)C(C)(C)O4)n2)cc(OC)c1OC [R406] + C[C@@H](Oc1cc(-c2cnn(C3CCNCC3)c2)cnc1N)c1c(Cl)ccc(F)c1Cl [Crizotinib] (partner 1 µM)
In short: (§1)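 Lung cancer cell lines in 1536-well plates were dosed by pin tool the day after seeding, either with one drug alone or with a fixed anchor-drug dose plus five library-drug doses (not always all listed) in √10 steps. After 5 days, cells were fixed and their nuclei stained in one step (final 0.05% Triton X-100, 1% formaldehyde, 1 ug/ml Hoechst), then counted on 4× images. Relative viability is the nuclei count in treated wells divided by that in vehicle wells. Values are medians of duplicate plates.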

[2] = compound: O=C(/C=C/c1cccnc1)NCCCCC1CCN(C(=O)c2ccccc2)CC1 [Daporinad] + CS(=O)(=O)N1CCN(Cc2cc3nc(-c4cccc5[nH]ncc45)nc(N4CCOCC4)c3s2)CC1 [Pictilisib] (partner 1 µM)
In short: as §1

[3] = compound: COc1cc(Nc2ncc(F)c(Nc3ccc4c(n3)NC(=O)C(C)(C)O4)n2)cc(OC)c1OC [R406] + C[C@]1(O)C[C@@H](c2nc(-c3ccc4ccc(-c5ccccc5)nc4c3)c3c(N)nccn32)C1 [Linsitinib] (partner 1 µM)
In short: as §1

[4] = compound: COc1cc(Nc2ncc(F)c(Nc3ccc4c(n3)NC(=O)C(C)(C)O4)n2)cc(OC)c1OC [R406] + COc1cc2c(Oc3ccc(NC(=O)C4(C(=O)Nc5ccc(F)cc5)CC4)cc3F)ccnc2cc1OCCCN1CCOCC1 [Foretinib] (partner 0.25 µM)
In short: as §1

| Cell Line | relative viability ([1]; first compound 0.08 µM) | relative viability ([1]; first compound 0.253 µM) | relative viability ([1]; first compound 0.8 µM) | relative viability ([1]; first compound 2.53 µM) | relative viability ([1]; first compound 8 µM) | relative viability ([2]; first compound 0.0005 µM) | relative viability ([2]; first compound 0.001581 µM) | relative viability ([2]; first compound 0.005 µM) | relative viability ([2]; first compound 0.01581 µM) | relative viability ([3]; first compound 0.08 µM) | relative viability ([3]; first compound 0.253 µM) | relative viability ([3]; first compound 0.8 µM) | relative viability ([3]; first compound 2.53 µM) | relative viability ([3]; first compound 8 µM) | relative viability ([4]; first compound 0.08 µM) | relative viability ([4]; first compound 0.253 µM) | relative viability ([4]; first compound 0.8 µM) | relative viability ([4]; first compound 2.53 µM) | relative viability ([4]; first compound 8 µM) |
| --- | --- | --- | --- | --- | --- | --- | --- | --- | --- | --- | --- | --- | --- | --- | --- | --- | --- | --- | --- |
| NCI-H1355 | 1.09 | 1.14 | 1.25 | 0.909 | 0.687 | 0.417 | 0.549 | 0.628 | 0.576 | 0.83 | 0.83 | 0.94 | 0.588 | 0.596 | 0.973 | 1.09 | 1.15 | 0.833 | 0.691 |
| HOP-62 | 1.12 | 1.21 | 0.844 | 1.1 | 1.17 | – | 0.846 | 0.702 | 0.668 | 0.773 | 0.97 | 0.936 | 0.684 | 0.865 | 1.03 | 1.28 | 0.967 | 1.26 | 0.808 |
| NCI-H2085 | 0.841 | 0.974 | 0.785 | 0.887 | 0.566 | 0.438 | 0.463 | 0.526 | 0.554 | 0.899 | 1.08 | 0.825 | 0.971 | 0.707 | 0.847 | 1.08 | 0.973 | 0.912 | 0.289 |
